ChEMBL document CHEMBL6078642, “Design, Synthesis, and Activity Evaluation of BRD4 PROTAC Based on Alkenyl Oxindole-DCAF11 Pair” (J Med Chem, 2024)
Values belong to the molecule of their own block, whether it stands above or below them. Activity calls are given as the source filed them. No cut-off for these calls is given here.

Legend:
[1] = tested on: MDA-MB-231; test: Antiproliferative activity against human MDA-MB-231 cells assessed as reduction in cell viability incubated for 2 days by CCK8 assay; format: functional, cell-based; conditions: MDA-MB-231, 48 h
[2] = tested on: MDA-MB-231; test: Antiproliferative activity against human MDA-MB-231 cells assessed as reduction in cell viability incubated for 2 days in presence of tert-butyl 2-(4-methyl-2-((2-oxo-6-(trifluoromethyl)indolin-3-ylidene)methyl)phenoxy)acetate by CCK8 assay; format: functional, cell-based; conditions: MDA-MB-231, 48 h
[3] = tested on: MDA-MB-231; test: Induction of BRD4 degradation in human MDA-MB-231 cells at 10 uM incubated for 12 hrs by immunoblot analysis; format: cell-based
[4] = tested on: MDA-MB-468; test: Antiproliferative activity against human MDA-MB-468 cells assessed as reduction in cell viability incubated for 2 days in presence of tert-butyl 2-(4-methyl-2-((2-oxo-6-(trifluoromethyl)indolin-3-ylidene)methyl)phenoxy)acetate by CCK8 assay; format: functional, cell-based; conditions: MDA-MB-468, 48 h
[5] = tested on: MDA-MB-231; test: Induction of apoptosis in human MDA-MB-231 cells assessed as increase in cleaved caspase-7 level by immunoblot analysis; format: functional, cell-based
[6] = tested on: MDA-MB-468; test: Antiproliferative activity against human MDA-MB-468 cells assessed as reduction in cell viability incubated for 2 days by CCK8 assay; format: functional, cell-based; conditions: MDA-MB-468, 48 h
[7] = tested on: MDA-MB-231; test: Induction of apoptosis in human MDA-MB-231 cells assessed as increase in cleaved PARP level by immunoblot analysis; format: functional, cell-based
[8] = target: T1, DCAF11-BRD4 (Homo sapiens, UniProt O60885+Q8TEB1); test: PROTAC activity at DCAF11/BRD4 in human MDA-MB-231 cells assessed as induction of BRD4 degradation at 10 uM incubated for 12 hrs by immunoblot analysis; format: cell-based
T1 sequence (Q8TEB1 whole entry, looked up, other chains not shown): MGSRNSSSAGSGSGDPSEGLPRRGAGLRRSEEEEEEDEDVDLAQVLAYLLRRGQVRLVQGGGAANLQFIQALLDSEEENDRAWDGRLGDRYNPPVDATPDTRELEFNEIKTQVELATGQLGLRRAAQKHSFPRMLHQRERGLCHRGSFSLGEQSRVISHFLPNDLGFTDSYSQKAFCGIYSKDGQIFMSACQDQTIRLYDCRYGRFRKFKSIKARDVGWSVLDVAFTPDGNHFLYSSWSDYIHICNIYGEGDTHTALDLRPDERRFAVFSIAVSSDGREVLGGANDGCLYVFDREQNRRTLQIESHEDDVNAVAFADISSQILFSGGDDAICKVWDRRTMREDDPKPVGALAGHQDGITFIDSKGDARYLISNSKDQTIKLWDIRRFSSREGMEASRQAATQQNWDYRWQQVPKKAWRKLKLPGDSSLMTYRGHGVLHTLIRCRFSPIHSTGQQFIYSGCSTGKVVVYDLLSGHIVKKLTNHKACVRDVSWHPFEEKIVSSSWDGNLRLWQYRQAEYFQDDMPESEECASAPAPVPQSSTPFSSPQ

[9] = tested on: MDA-MB-231; test: Antiproliferative activity against human MDA-MB-231 cells assessed as reduction in cell viability incubated for 2 days in presence of JQ1 by CCK8 assay; format: functional, cell-based; conditions: MDA-MB-231, 48 h
[10] = tested on: MDA-MB-468; test: Antiproliferative activity against human MDA-MB-468 cells assessed as reduction in cell viability incubated for 2 days in presence of JQ1 by CCK8 assay; format: functional, cell-based; conditions: MDA-MB-468, 48 h
[11] = target: T1, DCAF11-BRD4; test: PROTAC activity at DCAF11/BRD4 in human MDA-MB-231 cells assessed as induction of BRD4 degradation at 1 uM measured within 1 hrs by immunoblot analysis; format: cell-based
[12] = target: T1, DCAF11-BRD4; test: Binding affinity to HA-tagged DCAF11/Flag-tagged BRD4 BD1 domain (unknown origin) expressed in HEK293T cells by co-immunoprecipitation analysis; format: cell-based
[13] = target: T1, DCAF11-BRD4; test: PROTAC activity at DCAF11/BRD4 in human BT-549 cells assessed as induction of BRD4 degradation at 1 uM incubated for 12 hrs by immunoblot analysis; format: cell-based
[14] = tested on: MDA-MB-231; test: Effect on BRD4 mRNA gene expression in human MDA-MB-231 cells at 0.1 to 1 microM incubated for 12 hrs by qPCR analysis; format: functional, cell-based; conditions: dose 0.1-1 µM
[15] = target: T1, DCAF11-BRD4; test: Binding affinity to DCAF11/BRD4 BD1 domain in HEK293T cells by co-immunoprecipitation analysis; format: cell-based
[16] = tested on: MDA-MB-231; test: Inhibition of cell migration in human MDA-MB-231 cells at 0.1 to 1 uM measured after 48 hrs by crystal violet staining based transwell migration assay; format: functional; conditions: dose 0.1-1 µM
[17] = tested on: MCF7; test: Antiproliferative activity against human MCF7 cells assessed as reduction in cell viability incubated for 2 days by CCK8 assay; format: functional, cell-based; conditions: MCF7, 48 h
[18] = target: T1, DCAF11-BRD4; test: PROTAC activity at DCAF11/BRD4 in human MCF7 cells assessed as induction of BRD4 degradation at 1 uM incubated for 12 hrs by immunoblot analysis; format: cell-based
[19] = target: T1, DCAF11-BRD4; test: PROTAC activity at DCAF11/BRD4 BD1 domain (unknown origin) expressed in HEK293T cells assessed as induction of BRD4 degradation at 10 to 100 nM incubated for 12 hrs by Dual fluorescence reporter cell high content imaging analysis; format: cell-based; conditions: dose 10-100 nM
[20] = target: T1, DCAF11-BRD4; test: PROTAC activity at DCAF11/BRD4 in human MDA-MB-231 cells assessed as induction of BRD4 degradation at 1 uM preincubated with bortezomib for 1 hrs and measured after compound addition by immunoblot analysis; format: cell-based
[21] = target: T1, DCAF11-BRD4; test: PROTAC activity at DCAF11/BRD4 in human MDA-MB-157 cells assessed as induction of BRD4 degradation at 1 uM incubated for 12 hrs by immunoblot analysis; format: cell-based
[22] = target: T1, DCAF11-BRD4; test: PROTAC activity at DCAF11/BRD4 in human MDA-MB-231 cells assessed as induction of BRD4 degradation incubated for 12 hrs by immunoblot analysis; format: cell-based; conditions: dose 0.1-1000 nM
[23] = target: T1, DCAF11-BRD4; test: PROTAC activity at DCAF11/BRD4 in human MDA-MB-231 cells assessed as induction of BRD4 degradation by immunoblot analysis; format: cell-based
[24] = tested on: HCC1937; test: Antiproliferative activity against human HCC1937 cells assessed as reduction in cell viability incubated for 2 days by CCK8 assay; format: functional, cell-based; conditions: HCC1937, 48 h
[25] = target: T1, DCAF11-BRD4; test: PROTAC activity at DCAF11/BRD4 in human MDA-MB-231 cells assessed as induction of BRD4 degradation at 1 uM preincubated with chloroquine for 1 hrs and measured after compound addition by immunoblot analysis; format: cell-based
[26] = target: T1, DCAF11-BRD4; test: PROTAC activity at DCAF11/BRD4 in human T47D cells assessed as induction of BRD4 degradation at 1 uM incubated for 12 hrs by immunoblot analysis; format: cell-based
[27] = target: T1, DCAF11-BRD4; test: PROTAC activity at DCAF11/BRD4 in human MDA-MB-468 cells assessed as induction of BRD4 degradation at 1 uM incubated for 12 hrs by immunoblot analysis; format: cell-based
[28] = target: T1, DCAF11-BRD4; test: PROTAC activity at DCAF11/BRD4 in human MDA-MB-231 cells assessed as induction of BRD4 degradation at 1 to 100 nM incubated for 1 hrs by Western blot analysis; format: cell-based; conditions: dose 1-100 nM
[29] = tested on: HEK293T; test: Induction of BRD4 BD1 domain (unknown origin) degradation expressed in DCAF11 knockout HEK293T cells assessed as decrease in red fluorescence at 1 uM incubated for 12 hrs by dual fluorescence reporter cell based high content imaging analysis; conditions: Homo sapiens
[30] = target: T1, DCAF11-BRD4; test: PROTAC activity at DCAF11/BRD4 in human MDA-MB-231 cells assessed as induction of BRD4 degradation at 1 uM preincubated with PYR41 for 1 hrs and measured after compound addition by immunoblot analysis; format: cell-based
[31] = tested on: MDA-MB-157; test: Antiproliferative activity against human MDA-MB-157 cells assessed as reduction in cell viability incubated for 2 days by CCK8 assay; format: functional, cell-based; conditions: MDA-MB-157, 48 h
[32] = tested on: MDA-MB-231; test: Downregulation of BRD4 protein expression in human MDA-MB-231 cells at 1 uM incubated for 6 hrs by proteomic analysis; format: functional, cell-based
[33] = target: T1, DCAF11-BRD4; test: PROTAC activity at DCAF11/BRD4 in human MDA-MB-231 cells assessed as induction of BRD4 degradation at 1 uM preincubated with bafilomycin A1 for 1 hrs and measured after compound addition by immunoblot analysis; format: cell-based
[34] = target: T1, DCAF11-BRD4; test: PROTAC activity at DCAF11/BRD4 in human MDA-MB-231 cells assessed as induction of BRD4 degradation at 10 to 100 nM incubated for 1 hrs by immunoblot analysis; format: cell-based; conditions: dose 10-100 nM
[35] = tested on: BT-549; test: Antiproliferative activity against human BT-549 cells assessed as reduction in cell viability incubated for 2 days by CCK8 assay; format: functional, cell-based; conditions: BT-549, 48 h
[36] = tested on: T47D; test: Antiproliferative activity against human T47D cells assessed as reduction in cell viability incubated for 2 days by CCK8 assay; format: functional, cell-based; conditions: 48 h
[37] = target: T1, DCAF11-BRD4; test: PROTAC activity at DCAF11/BRD4 in human MDA-MB-231 cells assessed as induction of BRD4 degradation at 10 nM incubated for 12 hrs by immunoblot analysis; format: cell-based
[38] = target: T1, DCAF11-BRD4; test: PROTAC activity at DCAF11/BRD4 in human MDA-MB-231 cells assessed as induction of BRD4 degradation at 1 uM preincubated with MLN4924 for 1 hrs and measured after compound addition by immunoblot analysis; format: cell-based
[39] = tested on: HEK293T; test: Induction of BRD4 BD1 domain (unknown origin) degradation expressed in DCAF11 knockout HEK293T cells at 1 uM incubated for 12 hrs by immunoblot analysis; format: cell-based; conditions: Homo sapiens
[40] = target: T1, DCAF11-BRD4; test: PROTAC activity at DCAF11/BRD4 in human MDA-MB-231 cells assessed as induction of BRD4 degradation at 1 uM incubated for 12 hrs in presence of tert-butyl 2-(4-methyl-2-((2-oxo-6-(trifluoromethyl)indolin-3-ylidene)methyl)phenoxy)acetate by immunoblot analysis; format: cell-based
[41] = target: T1, DCAF11-BRD4; test: PROTAC activity at DCAF11/BRD4 in human MDA-MB-231 cells assessed as induction of BRD4 degradation at 1 uM preincubated with MG132 for 1 hrs and measured after compound addition by immunoblot analysis; format: cell-based
[42] = target: T1, DCAF11-BRD4; test: PROTAC activity at DCAF11/BRD4 BD1 domain (unknown origin) expressed in HEK293T cells assessed as induction of BRD4 degradation at 1 uM incubated for 12 hrs by Dual fluorescence reporter cell high content imaging analysis relative to control; format: cell-based
[43] = target: T1, DCAF11-BRD4; test: PROTAC activity at DCAF11/BRD4 in human MDA-MB-231 cells assessed as induction of BRD4 degradation at 1 uM incubated for 12 hrs in presence of JQ1 by immunoblot analysis; format: cell-based
[44] = target: T1, DCAF11-BRD4; test: PROTAC activity at DCAF11/BRD4 in human HCC1937 cells assessed as induction of BRD4 degradation at 1 uM incubated for 12 hrs by immunoblot analysis; format: cell-based

SMILES: Cc1sc2c(c1C)C(c1ccc(Cl)cc1)=N[C@@H](CC(=O)O)c1nnc(C)n1-2
IC50 [1]: 5.13 µM
IC50 [2]: 3.71 µM
Activity [3]: inactive
IC50 [4]: 10 µM
Activity [5]: inactive
IC50 [6]: 25.9 µM
Activity [7]: inactive

IC50 [1]: 11.4 µM
Activity [8]: inactive
IC50 [9]: 3.71 µM
IC50 [6]: 26.6 µM
IC50 [10]: 10 µM
SMILES: Cc1ccc(OCC(=O)OC(C)(C)C)c(/C=C2\C(=O)Nc3cc(C(F)(F)F)ccc32)c1
Activity [5]: inactive
Activity [7]: inactive

Activity [11]: Active
IC50 [1]: 0.07 µM
Activity [12]: Active
Activity [13]: Active
Activity [15]: Active
IC50 [17]: 2.85 µM
Activity [18]: Active
Activity [19]: Active
Activity [20]: inactive
Activity [21]: Active
Activity [22]: Dose-dependent-effect
DC50 [23]: 0.00736 µM
IC50 [24]: 0.18 µM
Activity [25]: Active
Activity [26]: Active
Activity [27]: Active
Activity [30]: inactive
IC50 [31]: 0.1 µM
Activity [33]: Active
Activity [34]: Active
IC50 [35]: 6.37 µM
IC50 [36]: 0.63 µM
IC50 [6]: 0.02 µM
Activity [37]: Active
Activity [38]: inactive
Activity [40]: inactive
Activity [41]: inactive
Activity [42]: > 35%
Activity [43]: inactive
Activity [44]: Active
SMILES: Cc1ccc(OCC(=O)NCCCOCCOCCOCCCNC(=O)C[C@@H]2N=C(c3ccc(Cl)cc3)c3c(sc(C)c3C)-n3c(C)nnc32)c(/C=C2\C(=O)Nc3cc(C(F)(F)F)ccc32)c1 (stereo in doubt)
Activity [14]: inactive
inhibition [16]: Active
Activity [28]: Active; Degradation Capability Comparable To Dbet6 And Mz1
Activity [29]: inactive
Activity [5]: Active
Activity [32]: Active
Activity [39]: inactive
Activity [7]: Active
